Measured values: patent publication US8399486B2, “Benzenesulfonyl compounds and the use thereof” (Purdue Pharma L.P., priority 2007, dated 2013)

Experiments:
[1] = target: T1, N-type calcium channel (NTCC) (Homo sapiens, UniProt Q00975); assay: FLIPR calcium mobilization assay for N-type calcium channel; type: cell-based; conditions: calcium mobilization in vitro assay, differentiated IMR32 cells, 90 mM KCl, 5 μM nitrendipine
T1 construct: endogenous in cells; host or cells: IMR32 cells (ATCC), differentiated with dibutyryl cAMP and bromodeoxyuridine
Experimental: Cell maintenance and differentiation. Unless noted otherwise, cell culture reagents were purchased from Mediatech of Herndon, Md. IMR32 cells (American Type Culture Collection, ATCC, Manassas, Va.) were routinely cultured in growth medium consisting of minimum essential medium containing 10% fetal bovine serum (FBS, Hyclone, Logan, Utah), 100 U/mL penicillin, 100 μg/mL streptomycin, 2 mM L-glutamine, 1 mM sodium pyruvate, and 1×MEM non-essential amino acids. 80-90% confluent flasks of cells were differentiated using the following differentiation medium: Growth medium plus 1 mM dibutyryl cyclic AMP (Sigma, St. Louis, Mo.), and 2.5 μM bromodeoxyuridine (Sigma). Cells were differentiated for 8 days by replacing differentiation medium every 2-3 days.
FLIPR Calcium Mobilization Assay for N-type Calcium Channel. One day prior to performing this assay, differentiated IMR32 cells were treated with 1× CellStripper, and seeded on poly-D-lysine-coated 96-well clear-bottom black plates (Becton Dickinson, Franklin Lakes, N.J.) at 200,000 cells/well. On the day of the assay, the cell plates were washed with IMR32 buffer (127 mM NaCl, 1 mM KCl, 2 mM MgCl2, 700 μM NaH2PO4, 5 mM CaCl2, 5 mM NaHCO3, 8 mM HEPES, 10 mM glucose, pH 7.4), then pre-stimulated with KCl and loaded as follows: 0.05 mL of IMR32 buffer, 0.05 mL of each compound tested diluted in IMR32 buffer containing 20 μM nitrendipine (Sigma), and 0.1 mL KCl dissolved in IMR32 buffer, plus Fluo-4 were added (3 μM final concentration, Molecular Probes, Eugene, Oreg.). Final test compound concentrations ranged from about 846 μM to about 17 μM, final nitrendipine concentration was 5 μM, and final KCl concentration was 90 mM. After 1 hour, the cells were washed twice with 0.05 mL of each compound tested in nitrendipine-containing IMR32 buffer (no KCl or Fluo-4), and then replaced with 0.1 mL of each compound tested in nitrendipine-containing IMR32 buffer. Plates were then transferred to a Fluorimetric Imaging Plate Reader (FLIPR^96, Molecular Devices, Inc., Sunnyvale, Calif.) for assay. The FLIPR measured basal Fluo-4 fluorescence for 315 seconds (i.e., 5 minutes and 15 seconds), then added 0.1 mL KCl agonist dissolved in IMR32 buffer and measured fluorescence for another 45 seconds. Final test compound concentrations on the cells after FLIPR read ranged from about 846 pM to about 17 μM, final nitrendipine concentration was 5 μM, and final KCl concentration was 90 mM. Data were collected over the entire time course and analyzed using Excel, Graph Pad Prism (version 3.02, Graph Pad, San Diego, Calif.), or an in-house non-linear regression analysis software.

[2] = target: T2, L-type calcium channel (LTCC) (Rattus norvegicus, UniProt P22002); assay: FLIPR calcium mobilization assay for L-type calcium channel; type: cell-based; conditions: calcium mobilization in vitro assay, HEK293 cells expressing recombinant rat LTCC subunits (α1c, α2δ, β1), 90 mM KCl
T2 construct: expressed in transfected cells; pcDNA6.2DEST α1c, pcDNA3.2DEST β1, pcDNA3.1-Zeo α2δ)
Experimental: Recombinant human embryonal kidney cells (HEK293, ATCC) stably transfected with either N-type calcium channel (NTCC) subunits (α1b, α2δ, and β3) or L-type calcium channel (LTCC) subunits (α1c, α2δ, and β1) were routinely cultured in growth medium consisting of Dulbecco's Modified Eagles Medium containing 10% FBS, 100 U/mL penicillin, 100 μg/mL streptomycin, 4 mM L-glutamine, 500 μg/mL geneticin (G418), 20 μg/mL Blasticidin S (InVivogen, San Diego, Calif.) and 500 μg/mL zeocin (InVivogen).
FLIPR Calcium Mobilization Assay for L-type Calcium Channel. One day prior to performing this assay, HEK293 cells stably expressing recombinant rat L-type calcium channel (LTCC) subunits (α1c, α2δ, and β1) were trypsinized, then seeded on poly-D-lysine-coated 96-well clear-bottom black plates (Becton Dickinson, Franklin Lakes, N.J.) at 75,000 cells/well. On the day of the assay, the plates were washed with LTCC wash buffer (127 mM NaCl, 2 mM MgCl2, 700 μM NaH2PO4, 5 mM CaCl2, 5 mM NaHCO3, 8 mM HEPES, 10 mM glucose, pH 7.4), then loaded with 0.1 mL of LTCC wash buffer containing Fluo-4 (3 μM final concentration, Molecular Probes, Eugene, Oreg.). After 1 hour, the cells were washed with 0.1 mL LTCC wash buffer and resuspended in 0.05 mL LTCC assay buffer (same composition as LTCC wash buffer). Plates were then transferred to a FLIPR^96 for assay. The FLIPR measured basal Fluo-4 fluorescence for 15 seconds, then added 0.05 mL of each compound tested diluted in LTCC assay buffer at final concentrations ranging from about 846 pM to about 17 μM. Fluo-4 fluorescence was then measured for 5 minutes. 0.1 mL KCl agonist dissolved in LTCC assay buffer was then added to the cells to produce a final concentration of 90 mM KCl, and fluorescence was measured for another 45 seconds. Data were collected over the entire time course and analyzed using Excel, Graph Pad Prism, or an in-house regression analysis software.
L-type Recombinant Cell Line Development. L-type calcium channel expressing HEK-293 cells were created in two stages. Stage 1 was created as follows. The rat α1c, and β1 cDNA expression constructs (2.5 μg each) were co-transfected into human embryonic kidney (HEK-293) cells by Lipofectamine Plus reagent (Invitrogen), as per manufacturer's instructions. 24 hours later, cells were split in limiting dilution into multiple 96-well plates in selection media containing 20 μg/mL blasticidin and 500 μg/mL geneticin, and incubated for 3 weeks at 37° C., 5% CO2, 95% humidity. […] The FLIPR measured basal Fluo-4 fluorescence for 315 seconds, then added 0.1 mL KCl agonist dissolved in LTCC buffer and measured fluorescence for another 45 seconds. […] Data were collected over the entire time course and analyzed using Excel, Graph Pad Prism, or Activity Base software. […]

T1 sequence (Q00975 whole entry): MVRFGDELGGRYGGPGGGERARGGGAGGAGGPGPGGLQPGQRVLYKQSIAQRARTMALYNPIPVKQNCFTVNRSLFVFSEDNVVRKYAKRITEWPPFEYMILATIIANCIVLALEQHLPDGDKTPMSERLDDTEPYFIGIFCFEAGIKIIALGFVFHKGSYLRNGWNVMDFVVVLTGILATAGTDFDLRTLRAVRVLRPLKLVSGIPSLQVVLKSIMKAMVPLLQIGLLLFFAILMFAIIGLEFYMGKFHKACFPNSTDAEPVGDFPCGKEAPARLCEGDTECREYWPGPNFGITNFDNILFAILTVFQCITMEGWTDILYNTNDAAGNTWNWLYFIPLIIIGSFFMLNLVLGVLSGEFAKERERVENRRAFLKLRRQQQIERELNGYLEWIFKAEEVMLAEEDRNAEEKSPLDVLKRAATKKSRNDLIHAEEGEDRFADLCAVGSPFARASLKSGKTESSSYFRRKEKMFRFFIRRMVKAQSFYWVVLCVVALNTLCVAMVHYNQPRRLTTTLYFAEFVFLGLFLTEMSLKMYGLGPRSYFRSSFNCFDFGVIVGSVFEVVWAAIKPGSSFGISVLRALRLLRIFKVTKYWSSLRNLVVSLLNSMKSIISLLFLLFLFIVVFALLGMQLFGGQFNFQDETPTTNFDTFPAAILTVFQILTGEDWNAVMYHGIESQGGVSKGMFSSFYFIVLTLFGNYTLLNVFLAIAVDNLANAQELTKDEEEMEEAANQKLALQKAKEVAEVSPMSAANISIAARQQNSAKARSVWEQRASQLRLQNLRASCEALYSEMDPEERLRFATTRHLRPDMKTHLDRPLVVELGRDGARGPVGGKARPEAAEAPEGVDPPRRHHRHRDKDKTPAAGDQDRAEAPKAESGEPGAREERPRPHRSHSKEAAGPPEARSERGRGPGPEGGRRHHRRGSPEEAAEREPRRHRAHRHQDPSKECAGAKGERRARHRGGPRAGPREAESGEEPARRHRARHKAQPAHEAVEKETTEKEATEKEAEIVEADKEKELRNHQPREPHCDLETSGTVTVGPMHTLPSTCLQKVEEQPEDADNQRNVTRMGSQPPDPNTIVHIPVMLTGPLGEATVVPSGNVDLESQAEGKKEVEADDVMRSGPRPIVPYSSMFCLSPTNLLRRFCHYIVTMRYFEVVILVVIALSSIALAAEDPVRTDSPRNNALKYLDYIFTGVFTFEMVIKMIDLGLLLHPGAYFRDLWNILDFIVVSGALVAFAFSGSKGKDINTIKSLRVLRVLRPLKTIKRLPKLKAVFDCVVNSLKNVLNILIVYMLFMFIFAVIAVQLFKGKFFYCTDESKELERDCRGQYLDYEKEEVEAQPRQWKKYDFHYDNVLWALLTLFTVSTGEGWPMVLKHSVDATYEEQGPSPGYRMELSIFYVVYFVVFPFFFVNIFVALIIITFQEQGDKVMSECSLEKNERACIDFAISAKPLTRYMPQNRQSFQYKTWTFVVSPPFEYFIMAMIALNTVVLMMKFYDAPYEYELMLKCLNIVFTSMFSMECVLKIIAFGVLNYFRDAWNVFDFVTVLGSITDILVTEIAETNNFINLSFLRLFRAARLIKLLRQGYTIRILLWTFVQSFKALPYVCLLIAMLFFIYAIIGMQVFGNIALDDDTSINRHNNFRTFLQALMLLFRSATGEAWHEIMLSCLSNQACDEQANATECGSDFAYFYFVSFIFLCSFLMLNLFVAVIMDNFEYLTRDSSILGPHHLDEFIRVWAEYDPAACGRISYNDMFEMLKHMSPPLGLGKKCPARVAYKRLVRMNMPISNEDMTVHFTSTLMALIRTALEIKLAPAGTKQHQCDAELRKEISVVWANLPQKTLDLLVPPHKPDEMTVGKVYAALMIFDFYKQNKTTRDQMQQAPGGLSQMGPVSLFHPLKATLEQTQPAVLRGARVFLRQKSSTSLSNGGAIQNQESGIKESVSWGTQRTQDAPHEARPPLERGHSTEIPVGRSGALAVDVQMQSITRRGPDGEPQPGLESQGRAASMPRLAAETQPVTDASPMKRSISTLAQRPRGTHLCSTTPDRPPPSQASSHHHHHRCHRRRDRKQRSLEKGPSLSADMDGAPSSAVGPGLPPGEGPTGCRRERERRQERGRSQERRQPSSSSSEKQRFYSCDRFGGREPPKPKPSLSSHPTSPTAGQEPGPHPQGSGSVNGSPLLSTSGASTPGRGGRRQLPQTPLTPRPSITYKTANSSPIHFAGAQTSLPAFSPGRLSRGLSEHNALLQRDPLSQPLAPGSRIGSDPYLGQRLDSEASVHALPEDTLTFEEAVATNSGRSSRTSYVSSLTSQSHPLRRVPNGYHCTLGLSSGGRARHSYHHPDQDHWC
T1 sequence (P54289 25-956 partner limits assumed): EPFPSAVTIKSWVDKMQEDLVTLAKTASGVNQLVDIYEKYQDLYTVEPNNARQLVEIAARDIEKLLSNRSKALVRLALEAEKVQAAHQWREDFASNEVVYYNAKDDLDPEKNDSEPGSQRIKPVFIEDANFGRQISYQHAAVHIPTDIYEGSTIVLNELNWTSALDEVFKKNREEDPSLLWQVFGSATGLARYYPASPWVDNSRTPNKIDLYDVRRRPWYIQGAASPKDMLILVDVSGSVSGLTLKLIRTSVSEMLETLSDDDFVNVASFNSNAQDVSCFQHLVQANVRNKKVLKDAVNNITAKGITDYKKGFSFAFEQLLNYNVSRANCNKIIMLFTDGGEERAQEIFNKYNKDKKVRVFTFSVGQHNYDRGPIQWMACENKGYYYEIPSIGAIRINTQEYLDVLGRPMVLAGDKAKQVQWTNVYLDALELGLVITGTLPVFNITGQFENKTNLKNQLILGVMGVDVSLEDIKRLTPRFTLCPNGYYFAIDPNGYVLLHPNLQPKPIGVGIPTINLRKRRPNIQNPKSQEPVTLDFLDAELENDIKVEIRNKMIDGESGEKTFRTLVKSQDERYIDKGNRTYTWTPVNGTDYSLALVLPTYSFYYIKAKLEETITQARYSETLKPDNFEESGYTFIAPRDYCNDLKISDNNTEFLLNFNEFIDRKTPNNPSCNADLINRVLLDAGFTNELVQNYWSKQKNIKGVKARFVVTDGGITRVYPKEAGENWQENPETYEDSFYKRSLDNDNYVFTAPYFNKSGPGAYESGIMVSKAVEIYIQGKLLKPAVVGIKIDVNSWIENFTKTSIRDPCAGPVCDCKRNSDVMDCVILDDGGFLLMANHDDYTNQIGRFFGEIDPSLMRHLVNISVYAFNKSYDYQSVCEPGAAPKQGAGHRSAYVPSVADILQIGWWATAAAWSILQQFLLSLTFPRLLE
T1 sequence (P54289 957-1103 partner limits assumed): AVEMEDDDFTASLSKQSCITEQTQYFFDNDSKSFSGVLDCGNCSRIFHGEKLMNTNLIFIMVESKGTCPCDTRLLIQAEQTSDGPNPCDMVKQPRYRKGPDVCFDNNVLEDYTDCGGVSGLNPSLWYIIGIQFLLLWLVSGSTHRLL
T1 sequence (P54284 whole entry partner): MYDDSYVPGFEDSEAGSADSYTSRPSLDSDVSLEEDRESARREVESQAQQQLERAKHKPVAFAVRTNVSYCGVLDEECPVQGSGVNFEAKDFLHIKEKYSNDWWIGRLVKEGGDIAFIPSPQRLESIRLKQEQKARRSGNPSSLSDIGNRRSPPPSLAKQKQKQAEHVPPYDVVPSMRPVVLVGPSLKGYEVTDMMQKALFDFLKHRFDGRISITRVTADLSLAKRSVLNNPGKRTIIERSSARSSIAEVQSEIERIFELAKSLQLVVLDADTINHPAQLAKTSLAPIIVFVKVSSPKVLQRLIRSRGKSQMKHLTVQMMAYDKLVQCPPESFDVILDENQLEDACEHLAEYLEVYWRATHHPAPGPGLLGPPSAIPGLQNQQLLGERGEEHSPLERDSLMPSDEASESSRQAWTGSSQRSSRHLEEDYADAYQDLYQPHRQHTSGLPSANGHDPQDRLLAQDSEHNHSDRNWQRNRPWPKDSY

| Compound | IC50 [1] [nM] | IC50 [2] [nM] |
| --- | --- | --- |
| O=C(CNC1CCN(S(=O)(=O)c2cccc(C(F)(F)F)c2)CC1)Nc1cc(C(F)(F)F)cc(C(F)(F)F)c1 [Compound 18, N-(3,5-Bis-(trifluoromethyl)phenyl)-2-[1-(3-trifluoromethyl-benzenesulfonyl)piperidin-4-ylamino]acetamide] | 740 | > 20000 |
| O=C(CNC1CCN(S(=O)(=O)c2cccc(C(F)(F)F)c2)C1)Nc1ccc(F)cc1 (stereo not drawn) [Compound 10, N-(4-Fluorophenyl)-2-[1-(3-trifluoromethylbenzenesulfonyl)-pyrrolidin-3-ylamino]-acetamide] | 470 | 5980 |
| O=C(CNC1CCN(S(=O)(=O)c2cccc(C(F)(F)F)c2)CC1)Nc1ccc(F)cc1 [Compound 6, N-(4-Fluorophenyl)-2-[1-(3-trifluoromethyl-benzenesulfonyl)-piperidin-4-ylamino]acetamide] | 460 | > 20000 |
| O=C(CN(C1CC1)C1CCN(S(=O)(=O)c2cccc(C(F)(F)F)c2)CC1)Nc1ccc(F)cc1 [Compound 14, 2-{Cyclopropyl-[1-(3-trifluoromethylbenzenesulfonyl)-piperidin-4-yl]amino}-N-(4-fluorophenyl)acetamide] | 790 | 9330 |
| O=C(CC(=O)NC1CCN(S(=O)(=O)c2cccc(C(F)(F)F)c2)CC1)Nc1ccc(F)cc1F [Compound 23, N-(2,4-Difluorophenyl)-N′-[1-(3-trifluoromethylbenzenesulfonyl)-piperidin-4-yl]malonamide] | 1290 | – |
